Literature values as cited in US11737967B2, “Increasing the stability of agents for treating keratin material” (Henkel AG & Co. KGaA, priority 2019, dated 2023).

details: 25° C.

Structure (SMILES)	solubility in water
O=S(=O)([O-])c1ccc(N=Nc2c(O)ccc3ccccc23)cc1.[Na+] [Acid Orange 7, sodium salt of 4-[(2-hydroxy-1-naphthyl)azo]benzene sulphonate]	more than 7 g/L
Nc1cc(S(=O)(=O)[O-])cc2cc(S(=O)(=O)[O-])c(N=Nc3ccccc3)c(O)c12.[Na+].[Na+] [Acid Red 33, diantrium salt of 5-amino-4-hydroxy-3-(phenylazo)-naphthalene-2,7-disulphonate]	2500 µg/mL
O=C([O-])C1=NN(c2ccc(S(=O)(=O)[O-])cc2)C(=O)C1N=Nc1ccc(S(=O)(=O)[O-])cc1.[Na+].[Na+].[Na+] (centres unmarked) [Acid Yellow 23, trisodium salt of 4,5-dihydro-5-oxo-1-(4-sulfophenyl)-4-((4-sulfophenyl)azo)-1H-pyrazole-3-carboxylic acid]	highly soluble
CCN(Cc1cccc(S(=O)(=O)[O-])c1)c1ccc(C(=C2C=CC(=[N+](CC)Cc3cccc(S(=O)(=O)[O-])c3)C=C2)c2ccccc2S(=O)(=O)[O-])cc1.[Na+].[Na+] [Acid Blue 9]	more than 20 % by weight
O=C([O-])c1c(Cl)c(Cl)c(Cl)c(Cl)c1-c1c2c(Br)cc(=O)c(Br)c-2oc2c(Br)c(O)cc(Br)c12.O=C([O-])c1c(Cl)c(Cl)c(Cl)c(Cl)c1-c1c2c(Br)cc(=O)c(Br)c-2oc2c(Br)c(O)cc(Br)c12.[Na+].[Na+] [Acid Red 92, disodium salt of 3,4,5,6-tetrachloro-2-(1,4,5,8-tetrabromo-6-hydroxy-3-oxoxanthen-9-yl)benzoic acid]	greater than 10 g/L
